From patent US20150335657A1, “Methods for Modulating Sirtuin Enzymes” (The Trustees of Princeton University, priority 2014, published 2015) come the findings set out here.

The CC50 is the concentration at which the toxic effect on the cells reaches its halfway point. A high value points to better tolerance by the cells. By pIC50 is commonly meant the IC50 on a negative log10 scale, so that one unit is a factor of ten. A higher pIC50 goes with a low IC50. A word on the IC90: it is the concentration needed for an effect of 90%.

Data set [1] in a line: Tetrazolium-based cell viability assay (cytotoxicity). The conditions noted are these: human.
A further data set concerns the target T1, SIRT6 (Homo sapiens, UniProt Q8N6T7).
T1 construct: purchased Cayman Chemical
The data set is described as follows: Sirtuin deacetylase enzyme activity assay (Cayman Chemical), compound screen. Format: biochemical. Conditions: compound at 50 μM; Z-score of change in fluorescent signal; + increase, − decrease. The source says: (§1) Sirtuins have been identified as innate viral restriction factors and it has been previously shown that drugs that modulate the activity of these enzymes block the production of multiple viruses in culture (see, e.g., WO 2012/106509). Sirtuins are NAD-dependent enzymes that regulate the activity of target proteins by post-translational modifications and thereby control key cellular events (see, e.g., Haigis and Sinclair (2010) Ann Rev Pathol Mech Dis 5:253-95). SIRT1, SIRT2, SIRT3 and SIRT6 have shown a detectable deacetylase activity in well-established biochemical assays that utilize recombinant SIRT1, SIRT2, SIRT3, and SIRT6 enzymes and fluorophore-conjugated acetyl-peptides. As described in the Examples below, the deacetylase activity of these sirtuins were used as a surrogate to identify compounds having broad-range antiviral activity.
(§2) A publically disclosed, small molecule library consisting of approximately 13,000 compounds was screened using a commercially available (Cayman Chemical) enzyme activity assay. Deacetylase activity of sirtuins SIRT1, SIRT2, SIRT3, and SIRT6 was used as a surrogate to identify compounds with the potential for having broad-range antiviral activity. The compounds were tested at a single concentration (50 μM) in microtiter plates and their activity against the four sirtuins was recorded as a change in fluorescent signal intensity. […] Activation of sirtuin activity generated positive Z-scores and inhibition of sirtuin activity produced negative Z-scores.

The target of a further data set is T2, SIRT2 (Homo sapiens, UniProt Q8IXJ6).
T2 construct: purchased Cayman Chemical
T2 sequence (Q8IXJ6 1-389): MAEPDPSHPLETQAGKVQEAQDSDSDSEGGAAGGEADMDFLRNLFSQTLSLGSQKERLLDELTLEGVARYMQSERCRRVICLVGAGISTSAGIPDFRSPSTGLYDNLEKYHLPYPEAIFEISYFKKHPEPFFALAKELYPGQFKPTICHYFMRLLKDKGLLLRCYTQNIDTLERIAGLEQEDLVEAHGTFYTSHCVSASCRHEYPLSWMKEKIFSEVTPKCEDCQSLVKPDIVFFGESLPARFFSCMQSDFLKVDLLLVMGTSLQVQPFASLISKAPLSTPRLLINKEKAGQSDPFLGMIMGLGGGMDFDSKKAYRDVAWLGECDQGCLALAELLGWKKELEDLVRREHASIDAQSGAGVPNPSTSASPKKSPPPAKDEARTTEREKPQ
The description is as above. Conditions: compound at 50 μM; Z-score of change in fluorescent signal; + increase, − decrease. Format: biochemical.
Text: as §1, §2

In another data set the target is T3, SIRT3 (Homo sapiens, UniProt Q9NTG7).
T3 construct: purchased Cayman Chemical
T3 sequence (Q9NTG7 1-399): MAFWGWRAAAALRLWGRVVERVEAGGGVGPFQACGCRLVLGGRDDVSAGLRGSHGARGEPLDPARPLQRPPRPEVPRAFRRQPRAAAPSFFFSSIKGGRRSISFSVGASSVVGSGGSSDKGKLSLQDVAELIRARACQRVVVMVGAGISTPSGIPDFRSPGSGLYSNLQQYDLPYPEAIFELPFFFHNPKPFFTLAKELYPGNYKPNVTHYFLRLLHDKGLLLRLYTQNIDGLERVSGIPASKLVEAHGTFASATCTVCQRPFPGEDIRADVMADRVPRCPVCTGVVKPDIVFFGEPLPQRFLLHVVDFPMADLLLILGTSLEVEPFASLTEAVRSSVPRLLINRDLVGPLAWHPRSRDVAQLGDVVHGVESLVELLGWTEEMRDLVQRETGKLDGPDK
Described as above. Format: biochemical. The conditions noted are these: compound at 50 μM; Z-score of change in fluorescent signal; + increase, − decrease.
Text: as §1, §2

Another data set addresses T4, SIRT1 (Homo sapiens, UniProt Q96EB6).
T4 construct: purchased Cayman Chemical
T4 sequence (Q96EB6 1-747): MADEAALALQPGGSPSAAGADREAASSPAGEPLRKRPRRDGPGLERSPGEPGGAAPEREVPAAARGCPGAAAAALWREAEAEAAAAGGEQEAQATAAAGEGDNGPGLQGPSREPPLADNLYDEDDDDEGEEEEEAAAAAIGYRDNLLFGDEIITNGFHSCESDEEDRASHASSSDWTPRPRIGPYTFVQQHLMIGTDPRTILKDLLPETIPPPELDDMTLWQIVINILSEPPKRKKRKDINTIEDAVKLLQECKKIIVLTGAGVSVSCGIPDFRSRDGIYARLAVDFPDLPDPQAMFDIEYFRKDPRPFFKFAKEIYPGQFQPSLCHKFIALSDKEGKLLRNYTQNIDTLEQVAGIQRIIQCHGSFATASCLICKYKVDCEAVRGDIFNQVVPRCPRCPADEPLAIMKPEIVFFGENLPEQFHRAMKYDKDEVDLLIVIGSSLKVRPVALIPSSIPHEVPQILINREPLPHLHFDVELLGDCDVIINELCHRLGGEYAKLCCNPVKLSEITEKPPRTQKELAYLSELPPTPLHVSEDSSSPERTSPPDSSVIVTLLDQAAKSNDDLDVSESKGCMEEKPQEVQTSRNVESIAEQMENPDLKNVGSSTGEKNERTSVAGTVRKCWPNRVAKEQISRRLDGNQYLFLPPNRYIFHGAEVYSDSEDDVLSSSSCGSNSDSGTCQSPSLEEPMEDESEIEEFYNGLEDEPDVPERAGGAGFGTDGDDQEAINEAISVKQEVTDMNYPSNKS
The description is as above. Format: biochemical. The conditions noted are these: compound at 50 μM; Z-score of change in fluorescent signal; + increase, − decrease.
Text: as §1, §2

The subject of data set [2] is human cytomegalovirus (HCMV) AD169 strain. The data set can be described thus: Antiviral activity against HCMV in MRC5 fibroblasts (virus yield, fluorescent focus assay). Format: cell-based. Conditions: Human betaherpesvirus 5, HCMV AD169, 1 infectious unit/cell, treated 2 h after infection, virus in medium at 96 h.

Molecules are shown by their SMILES. pIC50: −log10 of the molar value.

T1 sequence (Q8N6T7 whole entry): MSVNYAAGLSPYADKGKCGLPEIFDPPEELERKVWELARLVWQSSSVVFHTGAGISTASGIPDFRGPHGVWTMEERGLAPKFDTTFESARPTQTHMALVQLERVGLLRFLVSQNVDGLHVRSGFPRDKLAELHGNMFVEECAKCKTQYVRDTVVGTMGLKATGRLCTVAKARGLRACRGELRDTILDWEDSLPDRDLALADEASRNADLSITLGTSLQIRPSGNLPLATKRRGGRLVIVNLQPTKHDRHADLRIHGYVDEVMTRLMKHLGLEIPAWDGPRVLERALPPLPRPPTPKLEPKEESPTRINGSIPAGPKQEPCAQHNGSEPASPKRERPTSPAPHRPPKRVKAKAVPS

As for `COc1ccccc1C(C)C(F)CNc1cnc2ccccc2c1` (stereo not drawn), the CC50 at 96 h in data set [1] was > 50 µM. At SIRT6, the “SIRT6 (change in sirtuin deacetylase activity, Z-score class)” value is recorded as “+++ (Z-score ≧ 3 = +++)”. For the same molecule, the “SIRT2 (change in sirtuin deacetylase activity, Z-score class)” value on SIRT2 was “++ (2 ≦ Z-score < 3 = ++)”. Moreover, the “SIRT3 (change in sirtuin deacetylase activity, Z-score class)” value on SIRT3 was “na (−2 ≦ Z-score < 2 = no activity (na))”. Moreover, the “SIRT1 (change in sirtuin deacetylase activity, Z-score class)” value at SIRT1 is listed as “+++ (Z-score ≧ 3 = +++)”. Further, in data set [2], the pIC50 is 5.92 and the 90% effect level (IC90) was put at 2.24 µM.
For `COc1cccc(CN2C(=O)c3cccnc3N(C)C2C(F)C(C)c2cnc3ccccc3c2)c1` (stereo not drawn), the CC50 at 96 h in data set [1] is 25 to 50 µM. Also, at SIRT6, the “SIRT6 (change in sirtuin deacetylase activity, Z-score class)” value was “+++ (Z-score ≧ 3 = +++)”. On SIRT2, the “SIRT2 (change in sirtuin deacetylase activity, Z-score class)” value was “+++ (Z-score ≧ 3 = +++)”. Moreover, the “SIRT3 (change in sirtuin deacetylase activity, Z-score class)” value at SIRT3 is recorded as “+++ (Z-score ≧ 3 = +++)”. Moreover, at SIRT1, the “SIRT1 (change in sirtuin deacetylase activity, Z-score class)” value is recorded as “+++ (Z-score ≧ 3 = +++)”. Besides, in data set [2], the pIC50 was 5.81 and the IC90 amounted to 15.5 µM.
Turning to `Cc1ccc(C(C)C(CN2CCN(C)CC2)Oc2cnccn2)cn1` (stereo not drawn), in data set [1], the CC50 at 96 h was > 50 µM. Also, the “SIRT6 (change in sirtuin deacetylase activity, Z-score class)” value at SIRT6 was “+++ (Z-score ≧ 3 = +++)”. For the same molecule, the “SIRT2 (change in sirtuin deacetylase activity, Z-score class)” value at SIRT2 is recorded as “na (−2 ≦ Z-score < 2 = no activity (na))”. Besides, the “SIRT3 (change in sirtuin deacetylase activity, Z-score class)” value on SIRT3 is given as “na (−2 ≦ Z-score < 2 = no activity (na))”. Also, the “SIRT1 (change in sirtuin deacetylase activity, Z-score class)” value at SIRT1 was “na (−2 ≦ Z-score < 2 = no activity (na))”. Also, in data set [2], the pIC50 was 4.52 and the IC90 was found to be 56 µM.
